Legend:
[1] = tested on: Reticulocyte Lysate; test: In vitro translation of capped FLuc-mRNA and luminescence measurement; format: biochemical; conditions: capped FLuc-mRNA
Method: In vitro translation was performed using a eukaryotic cell free protein expression kit from Reticulocyte Lysate (Invitrogen). Experiments were performed in 12.5 μL total volume containing 20 ng of the corresponding FLuc-mRNAs, 50 μM L-methionine and 150 mM potassium acetate. Samples were mixed with 8.5 μL of the reticulocyte lysate and incubated for 90 min at 30° C. Afterwards, 2 μL of the respective translation mix were used in subsequent luminescence measurement. The translation efficiency of the reporter mRNAs was assessed in a luciferase assay using Beetle-juice Luciferase Assay Firefly (pjk). Luciferase activity was determined by adding 50 μL freshly prepared substrate solution to the translation mixture. Luminescence was monitored using a Tecan Infinite® m1000pro microplate reader with an acquisition time of 3 s (duration of signal acquisition).
The photocleavable 5′-cap analog of formula (7) was used for in vitro transcription to make FLuc mRNA as described above. This was used for in vitro translation and Luminescence measurement as described above. The commercial non-modified cap analog denoted “m^7GpppG” (Jena Bioscience) was used as positive control. Samples were irradiated for 30 seconds. The ApppG capped mRNA, which is not recognized by the translation initiation factor served as negative control, which is substracted from the other samples as it represents background activity. The experiment was performed in quadruplicates. The FLuc-mRNA capped with the photocleavable 5′-cap analog of formula (7) is denoted “ONB”.
The in vitro translation assay and luminescence measurement was performed as described above using the photocleavable 5′-cap analog of formula (12). The capped mRNA was denoted “DMNB-m^7GpCH2ppG capped FLuc-mRNA”. Samples were irradiated for 30 seconds (365 nm) or 60 seconds (405 nm). The commercial non-modified cap analog denoted “m^7GpppG” (Jena Bioscience) was used as positive control and all other samples were normalized to it. The ApppG capped mRNA, which is not recognized by the translation initiation factor served as negative control, which is substracted from the other samples as it represents background activity. The experiment was performed in triplicates, except *DMNB-m7GpCH2ppG (365 nm) which was a single determination.
The in vitro translation assay in reticulocyte lysate and luminescence measurement was performed as described above using m^7GpppG capped FLuc-mRNA caged with the photocleavable 5′-cap analog of formulas (22) and (25) (denoted “DMNB m^7GpppG” and “NPOM m^7GpppG”). Samples were irradiated for 30 seconds at 365 nm. The ApppG capped mRNA, which is not recognized by the translation initiation factor served as negative control, which was substracted from the other samples as it represents background activity. The values were normalized to the non-irradiated sample with m^7GpppG capped mRNA (100%). The experiment was performed in triplicates.
The in vitro translation assay in reticulocyte lysate and luminescence measurement was performed as described above using m^7GpppG capped FLuc-mRNA with modified nucleotides m^5C and N^1methyl-pseudouridine caged with the photocleavable 5′-cap analog of formulas (22) and (25) (denoted “DMNB m^7GpppG mod” and “NPOM m^7GpppG mod”). Samples were irradiated for 30 seconds at 365 nm. The ApppG capped mRNA, which is not recognized by the translation initiation factor served as negative control, which was substracted from the other samples as it represents background activity. The values were normalized to the non-irradiated sample with m^7GpppG capped mRNA (100%). The experiment was performed in triplicates.

[2] = tested on: HeLa cells; test: Cell viability after irradiation, MTT test; format: cell-based; conditions: 365 nm 30 seconds or 405 nm 60 seconds; normalized to non-irradiated m7GG; single determination
Method: 3×10^4 cells in HeLa cell media (100 μL) were transferred in one well of a 96 well-plate. After 24 h the cells were transfected with Metafectene® Pro (0.3 μL) in MEM Earle's media (4.7 μL) and modified mRNA (0.1 μg) in MEM Earle's media (5 μL) for 6 h at 37° C. in a total volume of 100 μL. For subsequent toxicity assays, the media containing the transfection reagent was removed and cells were incubated overnight in fresh serum-free HeLa cell media. Cellular lethality was checked using the LDH Cytotoxicity Detection Kit, cellular viability was checked using the Vybrant® MTT Cell Proliferation Assay Kit (A volume of 100 μL 0.04 M HCl in 2-propanol was used instead of SDS-HCl solution to dissolve the formazan.) and cellular proliferation was checked using the BrdU Cell Proliferation Assay Kit. In each case, 24 h after transfection, absorbance was measured photometrically using the Tecan Infinite® M1000 Pro according to the manufacturer's instructions.
To evaluate the cell viability after irradiation, a MTT test was used as described above. HeLa cells were irradiated (5 V, 600 mA) with either 365 nm (m7GG 365, DMNB 365) or 405 nm (m7GG 405, DMNB 405) for 30 seconds (365 nm) or 60 seconds (405 nm). The values were normalized to the non-irradiated sample (m7GG).

[3] = Irradiation of photocleavable 5′-cap analogs, LC-MS (triple quad); format: physicochemical; conditions: 30 seconds, 365 nm (3 W)
Method: For determination of mass spectra, HPLC—triple-quadrupole mass spectrometry system was used. The system consists of Agilent 1260 Infinity II with dual λ absorbance detector (G7114A) HPLC part and Agilent Ultivo mass spectrometer with JetStream ion source (type of ESI). Column which was used: Agilent Poroshell 120 EC-C18 (3.0×150/2.7 μm). The polar compounds were tested by LC method (eluent 20 mM NH40Ac buffer (pH=6)/CH3CN, gradient 0-30%, column temperature=20° C.).
Samples of the photocleavable 5′-cap analog of formula (22) were irradiated for 30 seconds with 365 nm (3 W).

COc1cc(COC(=O)Nc2nc3c(c(=O)[nH]2)[n+](C)cn3[C@@H]2O[C@H](COP(=O)(O)CP(=O)(O)OP(=O)(O)OC[C@H]3O[C@@H](n4cnc5c(=O)[nH]c(N)nc54)C(O)C3O)C(O)C2O)c([N+](=O)[O-])cc1OC (stereo partly shown) [compound 12, P1-(N^2-(4,5-Dimethoxy-2-nitrobenzyl)oxycarbonyl-7-methylguanosin-5′-yl)-P3-guanosin-5′-yl 1,2-methylenetriphosphate]
in vitro translation (luminescence) after irradiation ([1]; 30 seconds (365 nm) or 60 seconds (405 nm)): partially restored | in vitro translation (luminescence), non-irradiated ([1]; non-irradiated, normalized to m^7GpppG capped mRNA): successfully inhibited to a high degree | cell viability (MTT) [2]: only slightly decreased | uncaging of the cap after irradiation (LC-MS) [3]: partially uncaged
